Source: ChEMBL document CHEMBL1275247, “Pharmacokinetics and safety of CXA-101, a new antipseudomonal cephalosporin, in healthy adult male and female subjects receiving single- and multiple-dose intravenous infusions” (Antimicrob Agents Chemother, 2010)

Assays:
[1] = Volume of distribution at steady state in healthy human at 500 mg, iv administered as 1 hr infusion every 8 hrs for 10 days measured on day 10; type: ADME, organism-based; conditions: in vivo
[2] = Clearance in healthy human at 1000 mg, iv administered as 1 hr infusion every 8 hrs for 10 days measured on day 10; type: ADME, organism-based; conditions: in vivo
[3] = Renal clearance in healthy human at 1000 mg, iv administered as single dose as 1 hr iv infusion; type: ADME, organism-based, Kidney; conditions: in vivo, read-out: CL_renal
[4] = Mean residence time in healthy human at 500 mg, iv administered as 1 hr infusion every 8 hrs for 10 days measured on day 10; type: ADME, organism-based; conditions: in vivo
[5] = Half-life in plasma of healthy human 500 mg, iv administered as 1 hr infusion every 8 hrs for 10 days measured on day 10; type: ADME, organism-based
[6] = system: Homo sapiens; assay: Toxicity in healthy human assessed as occurrence of flushing at 1000 mg, iv administered as 1 hr infusion every 8 hrs for 10 days; type: organism-based; conditions: in vivo
[7] = Mean residence time in healthy human at 2000 mg, iv administered as single dose as 1 hr iv infusion; type: ADME, organism-based; conditions: in vivo
[8] = AUC (0 to infinity) in healthy human at 1500 mg, iv administered as single dose as 1 hr iv infusion; type: ADME, organism-based; parameters: dose 1500 mg, time infinity, route intravenous; conditions: plasma
[9] = system: Homo sapiens; assay: Toxicity in healthy human assessed as occurrence of somnolence at 1000 mg, iv administered as single dose as 1 hr iv infusion; type: organism-based; conditions: in vivo
[10] = Volume of distribution at steady state in healthy human at 2000 mg, iv administered as single dose as 1 hr iv infusion; type: ADME, organism-based; conditions: in vivo
[11] = Volume of distribution at steady state in healthy human at 1000 mg, iv administered as single dose as 1 hr iv infusion; type: ADME, organism-based; conditions: in vivo
[12] = Drug recovery in urine of healthy human at 500 mg, iv administered as 1 hr infusion every 8 hrs for 10 days measured on day 1; type: ADME, organism-based; conditions: read-out: Activity
[13] = Cmax in healthy human at 1000 mg, iv administered as single dose as 1 hr iv infusion; type: ADME, organism-based; parameters: dose 1000 mg, route intravenous; conditions: in vivo
[14] = system: Homo sapiens; assay: Toxicity in healthy human assessed as occurrence of vulvo-vaginal pruritus at 1500 mg, iv administered as single dose as 1 hr iv infusion; type: organism-based; conditions: in vivo
[15] = Volume of distribution at steady state in healthy human at 500 mg, iv administered as 1 hr infusion every 8 hrs for 10 days measured on day 1; type: ADME, organism-based; conditions: in vivo
[16] = Drug recovery in urine of healthy human at 1000 mg, iv administered as 1 hr infusion every 8 hrs for 10 days measured on day 10; type: ADME, organism-based; conditions: read-out: Activity
[17] = Mean residence time in healthy human at 500 mg, iv administered as 1 hr infusion every 8 hrs for 10 days measured on day 1; type: ADME, organism-based; conditions: in vivo
[18] = system: Homo sapiens; assay: Toxicity in healthy human assessed as occurrence of hypoaesthesia at 500 mg, iv administered as 1 hr infusion every 8 hrs for 10 days; type: organism-based; conditions: in vivo
[19] = Volume of distribution at steady state in healthy human at 1500 mg, iv administered as 1 hr infusion every 12 hrs for 10 days measured on day 1; type: ADME, organism-based; conditions: in vivo
[20] = system: Homo sapiens; assay: Toxicity in healthy human assessed as occurrence of headache at 1500 mg, iv administered as single dose as 1 hr iv infusion; type: organism-based; conditions: in vivo
[21] = Volume of distribution at steady state in healthy human at 1000 mg, iv administered as 1 hr infusion every 8 hrs for 10 days measured on day 1; type: ADME, organism-based; conditions: in vivo
[22] = Drug recovery in urine of healthy human at 500 mg, iv administered as 1 hr infusion every 8 hrs for 10 days measured on day 10; type: ADME, organism-based; conditions: read-out: Activity
[23] = Tmax in healthy human at 1500 mg, iv administered as 1 hr infusion every 12 hrs for 10 days measured on day 10; type: ADME, organism-based; conditions: in vivo
[24] = Drug recovery in urine of healthy human at 1500 mg, iv administered as single dose as 1 hr iv infusion after 24 hrs; type: ADME, organism-based; conditions: read-out: Activity
[25] = Tmax in healthy human at 1500 mg, iv administered as 1 hr infusion every 12 hrs for 10 days measured on day 1; type: ADME, organism-based; conditions: in vivo
[26] = Cmax in healthy human at 500 mg, iv administered as 1 hr infusion every 8 hrs for 10 days measured on day 1; type: ADME, organism-based; parameters: dose 500 mg, route intravenous; conditions: in vivo
[27] = system: Homo sapiens; assay: Toxicity in healthy human assessed as occurrence of paraesthesia at 500 mg, iv administered as 1 hr infusion every 8 hrs for 10 days; type: organism-based; conditions: in vivo
[28] = AUC (0 to infinity) in healthy human at 500 mg, iv administered as single dose as 1 hr iv infusion; type: ADME, organism-based; parameters: dose 500 mg, time infinity, route intravenous; conditions: plasma
[29] = Renal clearance in healthy human at 1500 mg, iv administered as 1 hr infusion every 12 hrs for 10 days measured on day 10; type: ADME, organism-based, Kidney; conditions: in vivo, read-out: CL_renal
[30] = Renal clearance in healthy human at 1000 mg, iv administered as 1 hr infusion every 8 hrs for 10 days measured on day 10; type: ADME, organism-based, Kidney; conditions: in vivo, read-out: CL_renal
[31] = Tmax in healthy human at 500 mg, iv administered as single dose as 1 hr iv infusion; type: ADME, organism-based; conditions: in vivo
[32] = Drug recovery in urine of healthy human at 1000 mg, iv administered as 1 hr infusion every 8 hrs for 10 days measured on day 1; type: ADME, organism-based; conditions: read-out: Activity
[33] = Drug recovery in urine of healthy human at 1500 mg, iv administered as 1 hr infusion every 12 hrs for 10 days measured on day 10; type: ADME, organism-based; conditions: read-out: Activity
[34] = Clearance in healthy human at 1000 mg, iv administered as 1 hr infusion every 8 hrs for 10 days measured on day 1; type: ADME, organism-based; conditions: in vivo
[35] = Tmax in healthy human at 1500 mg, iv administered as single dose as 1 hr iv infusion; type: ADME, organism-based; conditions: in vivo
[36] = Renal clearance in healthy human at 1000 mg, iv administered as 1 hr infusion every 8 hrs for 10 days measured on day 1; type: ADME, organism-based, Kidney; conditions: in vivo, read-out: CL_renal
[37] = Cmax in healthy human at 250 mg, iv administered as single dose as 1 hr iv infusion; type: ADME, organism-based; parameters: dose 250 mg, route intravenous; conditions: in vivo
[38] = Volume of distribution at steady state in healthy human at 1500 mg, iv administered as single dose as 1 hr iv infusion; type: ADME, organism-based; conditions: in vivo
[39] = Clearance in healthy human at 500 mg, iv administered as single dose as 1 hr iv infusion; type: ADME, organism-based; conditions: in vivo
[40] = Renal clearance in healthy human at 500 mg, iv administered as 1 hr infusion every 8 hrs for 10 days measured on day 10; type: ADME, organism-based, Kidney; conditions: in vivo, read-out: CL_renal
[41] = Clearance in healthy human at 500 mg, iv administered as 1 hr infusion every 8 hrs for 10 days measured on day 10; type: ADME, organism-based; conditions: in vivo
[42] = Clearance in healthy human at 1500 mg, iv administered as 1 hr infusion every 12 hrs for 10 days measured on day 10; type: ADME, organism-based; conditions: in vivo
[43] = Cmax in healthy human at 1500 mg, iv administered as 1 hr infusion every 12 hrs for 10 days measured on day 10; type: ADME, organism-based; parameters: dose 1500 mg, route intravenous; conditions: in vivo
[44] = Drug recovery in urine of healthy human at 2000 mg, iv administered as single dose as 1 hr iv infusion after 24 hrs; type: ADME, organism-based; conditions: read-out: Activity
[45] = AUC (0 to infinity) in healthy human at 500 mg, iv administered as 1 hr infusion every 8 hrs for 10 days measured on day 10; type: ADME, organism-based; parameters: dose 500 mg, time infinity, route intravenous; conditions: plasma

## Cn1c(N)c(NC(=O)NCCN)c[n+]1CC1=C(C(=O)O)N2C(=O)[C@@H](NC(=O)/C(=N\OC(C)(C)C(=O)[O-])c3nsc(N)n3)[C@H]2SC1 [CEFTOLOZANE]
[1]
  Vd: 14 L
[2]
  clearance: 116 mL/min
[3]
  CL renal at 1 h: 93.4 mL/min
[4]
  MRT: 2.32 h
[5]
  half-life: 2.2 h
[6]
  Activity: Non-toxic
[7]
  MRT: 2.54 h
[8]
  AUC(0-inf): 243000 ng·h/mL
[9]
  Activity: Non-toxic
[10]
  Vd: 14.8 L
[11]
  Vd: 16.3 L
[12]
  dose excreted at 1 day: 82.9%
[13]
  Cmax: 58400 ng/mL
[14]
  Activity: Non-toxic
[15]
  Vd: 13.8 L
[16]
  dose excreted at 10 day: 94.1%
[17]
  MRT: 2.42 h
[18]
  Activity: Non-toxic
[19]
  Vd: 18.1 L
[20]
  Activity: Non-toxic
[21]
  Vd: 17.8 L
[22]
  dose excreted at 10 day: 84.6%
[23]
  Tmax: 1 h
[24]
  dose excreted at 24 h: 93.4%
[25]
  Tmax: 1.03 h
[26]
  Cmax: 34300 ng/mL
[27]
  Activity: Non-toxic
[28]
  AUC(0-inf): 84100 ng·h/mL
[29]
  CL renal: 127 mL/min
[30]
  CL renal: 111 mL/min
[31]
  Tmax: 1.03 h
[32]
  dose excreted at 1 day: 99.4%
[33]
  dose excreted at 10 day: 105%
[34]
  clearance: 112 mL/min
[35]
  Tmax: 1.03 h
[36]
  CL renal: 112 mL/min
[37]
  Cmax: 16500 ng/mL
[38]
  Vd: 17.6 L
[39]
  clearance: 99.1 mL/min
[40]
  CL renal: 87.6 mL/min
[41]
  clearance: 101 mL/min
[42]
  clearance: 121 mL/min
[43]
  Cmax: 82600 ng/mL
[44]
  dose excreted at 24 h: 97.7%
[45]
  AUC(0-inf): 82900 ng·h/mL
